The data set can be described thus: Human HepG2 cell viability assay in 384 well format. On the set-up: dose 125 nL, time 70.5 hour; concentration not given beside the values. Type of data set: toxicity, cell-based. The following applies: HepG2 cells, read-out: Inhibition.

Consider `N#Cc1ccc2c(c1)CN(C(=O)C1CC=CC1)C2c1cnco1` (stereo unspecified), for which the cytotoxicity at 70.5 h was -6.37%. Next, `Cc1cnc(N2CCC3(CC2)CCN(c2cncnc2)C3=O)nc1`: 8.5%; `CCN(C)C(=O)c1cc(-c2ccn(C(C)C)n2)n2ccccc12`: -3.51%; `O=C(NCc1cccs1)c1nc2c(o1)CN(c1ncccn1)C2`: -6.55%. The figure for `O=C(c1cnccn1)N1CCC2(CC1)C(=O)NCC2c1ccccc1` (stereo unspecified) is -6.72%; for `CN(C)CCNC(=O)c1nc2c(o1)CN(c1ncccn1)C2` it is -3.63%.

On to `Cc1ccc(N2CCC3(CCC(=O)N3)CC2)nn1`, for which the cytotoxicity at 70.5 h was -10%. As to `CN1C(=O)CC2(CCN(S(=O)(=O)C3CC3)CC2)c2ccccc21`, the cytotoxicity at 70.5 h amounted to 7.41%.

As for `COCC1CN(C(=O)Cc2ccccn2)Cc2ncn(C)c21` (stereo unspecified), the cytotoxicity at 70.5 h is -2.47%.

Consider `O=C(NCc1cccnc1)C1=NOC2(CCN(C3CCOCC3)C2)C1` (stereo unspecified), for which the cytotoxicity at 70.5 h was -11.3%.

Consider `CC(C)N(C)C(=O)C1=NOC2(CCN(C(=O)NCc3cccnc3)C2)C1` (stereo unspecified), for which the cytotoxicity at 70.5 h is -9.91%. In the case of `CCOCC1CN(C(=O)c2ccoc2)Cc2nn(C)cc21` (stereo unspecified), the cytotoxicity at 70.5 h was -6.29%. For `O=C([C@@H]1CC[C@@H]2[C@@H](CCN2Cc2ccncc2)O1)N1CCCCO1`, the cytotoxicity at 70.5 h was -6.89%. With `CNC(=O)c1cc2c(nc1NC(C)C)CCNCC2`, the cytotoxicity at 70.5 h amounted to 6.54%. With `CCOCc1ncn2c1CN(S(=O)(=O)c1ccc(F)cc1)CC2`, the cytotoxicity at 70.5 h is 9.27%. In the case of `COCc1ncn2c1CN(S(=O)(=O)c1cccc(OC)c1)CC2`, the cytotoxicity at 70.5 h was 8.77%. For `c1ccc(-c2ncc3c(n2)C2(CCN(c4ncccn4)C2)COC3)cc1` (stereo unspecified), the cytotoxicity at 70.5 h was -2.35%. Next, `O=C(Nc1ccccc1)C1CN(Cc2nccs2)CC12CCOCC2` (stereo unspecified): 10%; `O=C(c1ncccn1)N1C[C@@H]2COC[C@]2(c2nnc(C3CC3)o2)C1`: 9.47%; `COCc1ncn2c1CN(S(=O)(=O)c1cccc(F)c1)CC2`: -8.14%. As to `COCCO[C@@H]1C[C@H]2CN(C(=O)c3cccnc3)CCN2C1`, the cytotoxicity at 70.5 h is -6.81%.

Turning to `CS(=O)(=O)N1CCC2(COCc3cnc(-c4ccccc4)nc32)C1` (stereo unspecified), the cytotoxicity at 70.5 h was -10.2%. As for `Cc1noc(C)c1CN1CC2(CCN(C(=O)c3cccn3C)C2)CC1=O` (stereo unspecified), the cytotoxicity at 70.5 h was -8.3%. As to `Cc1ncnc2c1CCN(C(=O)c1cccnc1)CC2`, the cytotoxicity at 70.5 h is -6.81%. For the compound `Cc1ccc(CN2CCC3(CC(C(=O)NCC4CC4)=NO3)C2)s1` (stereo unspecified), the cytotoxicity at 70.5 h is -8.89%.

In the case of `CCN(CC)CC1CN(Cc2c(C)noc2C)Cc2nccn2C1` (stereo unspecified), the cytotoxicity at 70.5 h was -4.28%. The figure for `Cc1noc(C)c1CN1CC2(CCN(C(=O)c3ccc[nH]3)C2)CC1=O` (stereo unspecified) is -6.16%; for `O=C(NCC1CC1)C1=NOC2(CCN(Cc3ccsc3)C2)C1` (stereo unspecified) it is -7.31%. Next, `O=C(CC1CC1)N1CCC2(CC1)CC(Oc1ccccc1)CO2` (stereo unspecified): -4.92%; `N#Cc1cccc(CN2CCC3(CC(C(=O)NCC4CC4)=NO3)C2)c1` (stereo unspecified): -4.48%; `Cc1noc(C)c1C(=O)N1CCC2(CC1)CC(Oc1ccccc1)CO2` (stereo unspecified): -3.84%. Next, `Cc1ccc(C(=O)N2CCc3ncnc(C)c3CC2)cn1`: -4.87%. For the compound `CS(=O)(=O)Nc1nn(Cc2ccc(F)cc2)cc1Br`, the cytotoxicity at 70.5 h is -3.65%. `CCOc1cccc(C(=O)Nc2ccn(CC)n2)c1`: the cytotoxicity at 70.5 h is -19.9%. On to `O=C(CCn1cc(Cl)cn1)Nc1ncccn1`, for which the cytotoxicity at 70.5 h was -4.36%.

`CCCN1CCN(C(=O)c2ccn(COc3ccc(F)cc3)n2)CC1`: the cytotoxicity at 70.5 h is -3.36%. The figure for `O=C(c1ccn(COc2ccc(F)cc2)n1)N1CCCCCC1` is -3.63%; for `Cc1cc(NC(=O)C(C)Oc2ccc3c(c2)OCO3)no1` (stereo unspecified) it is -6.37%; for `Cc1nn(CC(=O)Nc2ccon2)c(C)c1Br` it is -11.8%.

Turning to `CCC/N=c1/c(NC(=O)NCCCOC)c(O)oc2ccccc12`, the cytotoxicity at 70.5 h was 29.3%. On to `CCn1nccc1CNC(=O)CCC1CCCC1`, for which the cytotoxicity at 70.5 h worked out at 18.7%. On to `CCCn1nccc1C(=O)Nc1ncc(C)s1`, for which the cytotoxicity at 70.5 h was -11.3%.

Regarding `CCN(CC)CCCNC(=O)c1nn(CC)cc1Cl`, the cytotoxicity at 70.5 h was 2.52%. Regarding `CCN(CC)CCCNC(=O)C(C)n1cc(Br)cn1` (stereo unspecified), the cytotoxicity at 70.5 h was -1.37%. Next, `NC(=O)C1CCN(C(=O)c2ccc(Cn3cc(Br)cn3)cc2)CC1`: 16%. In the case of `O=C(Nc1cnn(Cc2ccc(F)cc2Cl)c1)C1CC1`, the cytotoxicity at 70.5 h is -3.99%. `CSc1[nH]nc(NC(=O)c2ccncc2)c1C#N`: the cytotoxicity at 70.5 h is -1.59%. For `CCN(Cc1nonc1C)C(=O)Cn1nc(C(F)(F)F)cc1C1CC1`, the cytotoxicity at 70.5 h was -5.16%. Turning to `CCN(Cc1nonc1C)C(=O)Cn1nc(C(F)(F)F)cc1C`, the cytotoxicity at 70.5 h is -9.27%. In the case of `CC(=O)c1ccc(NC(=O)C(C)Cn2cc(Br)cn2)cc1` (stereo unspecified), the cytotoxicity at 70.5 h was -5.47%. For the compound `CC(C)(C)NC(=O)c1ccn(COc2ccccc2Cl)n1`, the cytotoxicity at 70.5 h is -5.39%. Next, `Cc1nnsc1C(=O)N1CCC(c2nc3ccccc3[nH]2)CC1`: 24%. Next, `CCCN(C(=O)COCC)c1cccc(C)c1`: -4.58%; `COCC(=O)N1CCC2(CC1)NC(=O)c1ccccc12`: 31.8%; `O=C(NCc1cncc2c1CCN(Cc1ccc(F)cc1)C2)C1CC1`: -8.1%. As to `O=C(NCc1cncc2c1CCN(Cc1ccoc1)C2)C1CC1`, the cytotoxicity at 70.5 h was -0.887%. On to `O=C(NCc1cncc2c1CCN(CC1CCOC1)C2)c1ccno1` (stereo unspecified), for which the cytotoxicity at 70.5 h is -6.93%. For `Cc1ccc(CN2CC[C@@H](O)[C@@H]2Cc2ccccc2)o1`, the cytotoxicity at 70.5 h was 34%. With `Cn1cncc1CNC1CC2(CCN(S(C)(=O)=O)CC2)c2ccccc21` (stereo unspecified), the cytotoxicity at 70.5 h is -2.27%. As for `O=C(c1cccnc1)N1C[C@@H](c2ccccc2)[C@@]2(CCNC2=O)C1`, the cytotoxicity at 70.5 h amounted to 7.29%. Next, `CCN1CCC2(CC1)CC(NC(=O)c1ccnnc1)c1ccccc12` (stereo unspecified): 7.06%. For `CO[C@@H]1CCN(Cc2ccc(C)o2)[C@H]1Cc1ccccc1`, the cytotoxicity at 70.5 h was -1.2%.

In the case of `Cc1cc(CN2C[C@@H](C)[C@@]3(CCN(C)C3=O)C2)oc1C`, the cytotoxicity at 70.5 h was -5.99%.

Turning to `Cc1ccc(N2CCN(Cc3ccccc3)C3(CCNCC3)C2=O)cn1`, the cytotoxicity at 70.5 h was -4.83%.

Regarding `CC(C)NC(=O)C1c2c(ncn2C(C)C)CCN1Cc1ccccc1` (stereo unspecified), the cytotoxicity at 70.5 h was -3.52%. Next, `O=C([C@H]1CC[C@@H]2[C@@H](CCN2Cc2ccsc2)O1)N1CCOCC1`: -6.53%. As to `c1cnc(N2CCCC3(COCCN(CC4CC4)C3)C2)nc1` (stereo unspecified), the cytotoxicity at 70.5 h was -10%. Take `Cn1cc(C(=O)N[C@H]2CN(Cc3nccs3)[C@@H]3CCCO[C@H]23)cn1`: the cytotoxicity at 70.5 h is -8.57%.

As to `O=C([C@H]1CC[C@@H]2[C@@H](CCN2Cc2ccc(F)cc2)O1)N1CCCO1`, the cytotoxicity at 70.5 h is -9.2%. Take `Cn1cccc1C(=O)N1CCO[C@H]2[C@H](OCc3cccnc3)CC[C@@H]21`: the cytotoxicity at 70.5 h is -7.88%.

Take `O=C(NCc1cccs1)c1nc2c(o1)CN(C(=O)c1cccnc1)C2`: the cytotoxicity at 70.5 h came to 7.5%.

Regarding `CCN(C)c1ncnc2c1CCN(C(=O)c1ccoc1C)CC2`, the cytotoxicity at 70.5 h is -10.9%.

Take `CCN(C)c1ncnc2c1CCN(C(=O)c1ccsc1)CC2`: the cytotoxicity at 70.5 h is -0.977%. The figure for `CC(C)Nc1nc2c(cc1C(=O)NCC1CC1)CCN(S(C)(=O)=O)CC2` is -6.91%; for `O=C(NCc1ccco1)[C@H]1CC[C@@H]2[C@@H](CCN2Cc2nccs2)O1` it is -4.65%. Regarding `O=C(c1cnccn1)N1CCN2C[C@H](OCc3ccccc3F)C[C@H]2C1`, the cytotoxicity at 70.5 h is -6.71%. With `O=C(NCc1ccco1)[C@@H]1CC[C@@H]2[C@@H](CCN2Cc2ccc(F)cc2)O1`, the cytotoxicity at 70.5 h was -5.82%. Regarding `O=C(Nc1ccccc1)C1CN(Cc2ccco2)CC12CCOCC2` (stereo unspecified), the cytotoxicity at 70.5 h was -10.6%.

Consider `O=C(Nc1ccccc1)C1CN(Cc2ccsc2)CC12CCOCC2` (stereo unspecified), for which the cytotoxicity at 70.5 h was -18.9%.

As to `COCc1ncn2c1CN(S(=O)(=O)Cc1ccc(C)cc1)CC2`, the cytotoxicity at 70.5 h was -10.2%. As to `COCC1CN(Cc2csc(C)n2)Cc2nccn2C1` (stereo unspecified), the cytotoxicity at 70.5 h was 2.98%. The figure for `CS(=O)(=O)N1CCOCC2(CN(Cc3ccc(F)cc3)CCO2)C1` (stereo unspecified) is -3.17%; for `CN(C)c1ncc2c(n1)C1(CCN(Cc3ccccc3F)C1)COC2` (stereo unspecified) it is -7.03%; for `CCn1ncc2c1C(COC)CN(S(=O)(=O)N(C)C)C2` (stereo unspecified) it is -10.2%. The figure for `COc1ccc(CC(=O)N2Cc3nccn3CC(CN(C)C)C2)cc1` (stereo unspecified) is 20.5%; for `Cc1ccc(CN2CCC3(CC2)CN(c2ccccc2)C(=O)CO3)o1` it is 23.7%. Turning to `COCCN1CCO[C@@H]2CN(Cc3cc(OC)cc(OC)c3)C[C@@H]2C1`, the cytotoxicity at 70.5 h was determined as 36.9%. The figure for `CN1CCN(Cc2ccncc2)C(=O)C12CCN(c1nccs1)CC2` is -2.86%; for `CN1CCN(C(=O)[C@H]2CC[C@@H]3[C@@H](CCN3Cc3ccsc3)O2)CC1` it is -6.96%. On to `CC(C)Nc1nc2c(cc1C(=O)NCC1CC1)CCN(CC1CC1)CC2`, for which the cytotoxicity at 70.5 h worked out at 25.7%.

`CN(Cc1ccco1)C[C@@H]1OC[C@H]2CN(Cc3nccs3)CC[C@H]21`: the cytotoxicity at 70.5 h is 4.46%.

Take `CN(C)CC(=O)N1Cc2nnn(C)c2C(COCc2ccccn2)C1` (stereo unspecified): the cytotoxicity at 70.5 h worked out at 9.45%. In the case of `COCCN1CCO[C@@H]2CN(Cc3ccccn3)C[C@@H]2C1`, the cytotoxicity at 70.5 h was 2.26%. As for `c1cncc(CN2CCCC3(COCCN(c4cnccn4)C3)C2)c1` (stereo unspecified), the cytotoxicity at 70.5 h is -5.18%. Next, `Cc1ncccc1NC(=O)[C@@H]1CC[C@@H]2[C@@H](CCN2Cc2cnn(C)c2)O1`: 13.5%; `CN(Cc1ccco1)C[C@H]1OC[C@@H]2CCN(Cc3ccccn3)C[C@@H]21`: -8.48%.

These data come from ChEMBL document CHEMBL3507680, “University of Dundee, Gates Library screen for HepG2 cell viability”.
